Data as given in PubChem BioAssay (NCI).
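Five concentrations, 48 hours, 96-well plates. The concentration for full growth arrest is given as TGI.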

Tests used:
Test in all cases: NCI anticancer screen, dose series, 48 h
DU-145 prostate = test system: DU-145 prostate
HS 578T breast = test system: HS 578T breast
MDA-MB-231 breast = test system: MDA-MB-231 breast
PC-3 prostate = test system: PC-3 prostate
SR leukemia = test system: SR leukemia
786-0 renal = test system: 786-0 renal

Compound | TGI (DU-145 prostate) [µM] | TGI (HS 578T breast) [µM] | TGI (MDA-MB-231 breast) [µM] | TGI (PC-3 prostate) [µM] | TGI (SR leukemia) [µM] | TGI (786-0 renal) [µM]
CCCc1c(-c2ccccc2)[nH]c2ccccc2c1=O | > 100 | > 100 | > 100 | > 100 | > 100 | 
CN(C)CCCN1c2ccccc2Sc2ccc3ccccc3c21 | 25.4 | 25.6 | 13.7 | 14.6 | 3.84 | 23.4
